Measurements reported in ChEMBL document CHEMBL1121735, “Synthesis and adrenoceptor affinity of some highly polar beta-substituted catecholamines” (J Med Chem, 1981).

What was measured:
Adrenergic receptor beta = Adrenergic receptor beta (Rattus norvegicus, UniProt P18090+P10608+P26255); assay: Binding affinity against Beta adrenergic receptor using [3H]dihydroalprenolol radioligand in rat brain homogenate; type: tissue-based
[1] = target: Adrenergic receptor alpha; assay: Binding affinity against Alpha adrenergic receptor using [3H]dihydroergocryptine radioligand in rat brain homogenate; type: tissue-based

| IC50 (Adrenergic receptor beta) [M l-1] | IC50 [1] [M l-1] | SMILES |
| --- | --- | --- |
| 0.00011 | 0.00001 | CNCC(c1ccc(O)c(O)c1)S(=O)(=O)O (racemic) |
| 0.00013 | 3.6e-6 | NCC(c1ccc(O)c(O)c1)S(=O)(=O)O (racemic) |
| 9.1e-6 | 0.000033 | CC(C)NCC(c1ccc(O)c(O)c1)S(=O)(=O)O (racemic) |
